Read-outs that look alike come from different tables or passages of the source.
Key:
[1] = tested on: human skin fibroblasts (WS1 cell line); assay: MTT cell viability, skin fibroblasts WS1; type: cell-based
Description: (§1) The MTT assay, which measures the activity of mitochondrial metabolism, was used for the determination of the influence of alkaloid standards on cancer cell viability.
(§2) For the evaluation of the effect of Berberis species, extracts against normal human skin fibroblast cells (WS1) were used. Both cell lines were received from the American Type Culture Collection (ATCC; Manassas, VA, USA). A375 and WS1 cells were cultured in Dulbecco’s Modified Eagle’s Medium (DMEM) (Sigma Aldrich, St. Louis, MO, USA). The procedure used in investigations of cell viability was described previously. Inactivated fetal bovine serum, penicillin, and streptomycin were added to cells maintained in a CO2 atmosphere at 37 °C. The suspension of cells was applied to a 96-well plate and incubated for 24 h. Next, the medium was removed from the wells, and Berberis species extracts or alkaloid standards were added to the wells. After incubation, MTT working solution was added to each well, and the plate was again incubated for 3 h. Subsequently, an SDS solution was added, and the concentration of the dissolved formazan was measured (for details, see Section S3. Procedure for investigation of cell viability). For the calculation of IC50 values obtained for the plant extracts and alkaloid standards, the IC50 calculator (https://www.aatbio.com/tools/ic50-calculator, accessed on 16 January 2024) was used.
S1. […]

acetylcholinesterase [2] = target: T1, acetylcholinesterase (Homo sapiens, UniProt P22303); assay: Kinetic study of acetylcholinesterase inhibition (Lineweaver-Burk plots and replots); type: biochemical; conditions: for type of acetylcholinesterase inhibition: Lineweaver-Burk plots
T1 construct: purchased Sigma-Aldrich (St. Louis, MO, USA)
T1 sequence (P22303 32-614, species assumed): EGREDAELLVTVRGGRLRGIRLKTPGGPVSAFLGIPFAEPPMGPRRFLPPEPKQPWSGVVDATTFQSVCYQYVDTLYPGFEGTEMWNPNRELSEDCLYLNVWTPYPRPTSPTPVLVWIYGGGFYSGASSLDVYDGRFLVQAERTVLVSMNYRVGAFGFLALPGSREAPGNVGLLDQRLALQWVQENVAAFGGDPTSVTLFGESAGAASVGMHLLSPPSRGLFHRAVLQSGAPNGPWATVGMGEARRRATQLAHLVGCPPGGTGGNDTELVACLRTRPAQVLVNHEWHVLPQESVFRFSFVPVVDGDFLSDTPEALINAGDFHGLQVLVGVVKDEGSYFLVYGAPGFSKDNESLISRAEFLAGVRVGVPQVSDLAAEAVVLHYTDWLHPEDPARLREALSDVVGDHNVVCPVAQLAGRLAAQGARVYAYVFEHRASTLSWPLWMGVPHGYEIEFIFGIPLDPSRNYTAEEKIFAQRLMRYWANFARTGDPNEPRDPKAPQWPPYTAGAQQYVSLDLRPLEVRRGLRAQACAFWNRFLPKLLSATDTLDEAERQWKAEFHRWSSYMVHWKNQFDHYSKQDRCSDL
Description: Lineweaver–Burk and Dixon plots were used for the determination of the type of inhibition and inhibition constants (Ki value) of these alkaloids. […] The Ki value was estimated from the replots of the slope of the individual Lineweaver–Burk plots versus the inhibitor concentrations (Figure 5B). […] The type of acetylcholinesterase inhibition and Ki value was determined for palmatine by the same method.

acetylcholinesterase [3] = target: T1, acetylcholinesterase; conditions: previously reported; cited from earlier work
[4] = ref PubChem; cited from earlier work
[5] = tested on: human melanoma cell line (A375); assay: MTT cell viability, melanoma cell line A375; type: cell-based; conditions: 24 h incubation
Description: as §1, §2
S1. […]

butyrylcholinesterase [6] = target: T2, butyrylcholinesterase (Homo sapiens, UniProt P06276); conditions: cited from earlier work
T2 construct: purchased Sigma-Aldrich (St. Louis, MO, USA)
T2 sequence (P06276 29-602): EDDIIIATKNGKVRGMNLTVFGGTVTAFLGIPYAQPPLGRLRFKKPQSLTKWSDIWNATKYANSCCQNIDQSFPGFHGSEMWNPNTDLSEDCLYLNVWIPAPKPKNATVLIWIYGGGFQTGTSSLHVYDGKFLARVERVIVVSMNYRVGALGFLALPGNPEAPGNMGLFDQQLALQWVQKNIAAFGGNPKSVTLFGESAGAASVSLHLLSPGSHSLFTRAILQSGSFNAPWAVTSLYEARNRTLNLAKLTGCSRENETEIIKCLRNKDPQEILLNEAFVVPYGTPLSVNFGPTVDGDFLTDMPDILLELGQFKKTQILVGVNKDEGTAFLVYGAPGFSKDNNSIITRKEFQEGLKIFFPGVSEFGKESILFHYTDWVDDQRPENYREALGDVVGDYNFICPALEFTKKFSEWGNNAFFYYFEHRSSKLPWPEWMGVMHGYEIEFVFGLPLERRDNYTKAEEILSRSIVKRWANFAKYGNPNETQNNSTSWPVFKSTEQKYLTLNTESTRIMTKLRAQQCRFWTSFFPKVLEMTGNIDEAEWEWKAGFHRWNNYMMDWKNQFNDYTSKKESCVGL

butyrylcholinesterase [7] = target: T2, butyrylcholinesterase; assay: Butyrylcholinesterase inhibition, Ellman method with HPLC-DAD; type: biochemical; conditions: alkaloid standards; 15 min at 37 °C, pH 7.8
acetylcholinesterase [8] = target: T1, acetylcholinesterase; conditions: cited from earlier work
acetylcholinesterase [9] = target: T1, acetylcholinesterase; type: biochemical; conditions: alkaloid standards; 15 min at 37 °C, pH 7.8
Description: (§3) All experiments were repeated three times.
S1. Samples preparation for determination of acetylcholinesterase inhibitory activity A stock solutions of reagents were prepared by dissolving of acetylcholinesterase at con-centrations 200 U/mL or 2 U/mL, acetylthiocholine iodide at concentration 0.0125 M and 5′- dithiobis-(2-nitrobenzoic acid) at concentration 0.00167 M in phosphate buffer at pH 7.8.
Samples for determination of acetylcholinesterase inhibitory activity were obtained by mixing of 50 µL of acetylthiocholine iodide, 50 µL of 5′-dithiobis-(2-nitrobenzoic acid), 50 µL of […]
as §3
All experiments were performed in triplicates.

butyrylcholinesterase [10] = target: T2, butyrylcholinesterase; conditions: read-out: IC50 butyrylcholinesterase; alkaloids isolated from Berberis vulgaris root bark; cited from earlier work
[11] = tested on: leukemic (Jurkat, MOLT-4), colon (HT-29), cervix (HeLa), breast (MCF-7) cancer cells; conditions: MOLT-4, HT-29, HeLa, read-out: IC50 values, proliferation and viability; cited from earlier work

| Compound | Hydrogen bond acceptor count [4] | Hydrogen bond donor count [4] | Log P [4] | Polar surface area [4] [Å²] | further results |
| --- | --- | --- | --- | --- | --- |
| COc1ccc2cc3[n+](cc2c1OC)CCc1cc2c(cc1-3)OCO2 [Berberine, berberine] | 4 | 0 | 3.6 | 40.8 | IC50 ([1]; Homo sapiens, WS1, 24 h, read-out: IC50 WS1): 95.3 µg/mL; type of acetylcholinesterase inhibition (acetylcholinesterase [2]): noncompetitive; mode of acetylcholinesterase inhibition (acetylcholinesterase [3]): non-competitive |
| COc1ccc2c(c[n+](C)c3c4cc5c(cc4ccc23)OCO5)c1OC [Chelerythrine, chelerythrine] | 4 | 0 | 4.6 | 40.8 | – |
| N.N.[Cl][Pt][Cl] [Cisplatin, cisplatin] | – | – | – | – | IC50 WS1 ([1]; human skin fibroblast cell line WS1, MTT, 24 h incubation): 44.07 µg/mL; IC50 A375 [5]: 23.8 µg/mL |
| COc1cc2c(cc1OC)-c1cc3ccc(OC)c(OC)c3c[n+]1CC2 [Palmatine, palmatine] | 4 | 0 | 3.7 | 40.8 | IC50 butyrylcholinesterase (butyrylcholinesterase [6]): 116.7 µg/mL; type of acetylcholinesterase inhibition (acetylcholinesterase [2]): mixed-type; Ki (acetylcholinesterase [2]; replot of Lineweaver-Burk slopes vs inhibitor concentration, substrate acetylthiocholine iodide): 17 µM; IC50 (butyrylcholinesterase [7]): 189 ± 42.5 µM; IC50 Values Butyrylcholinesterase (butyrylcholinesterase [7]): 66.74 µg/mL; mode of acetylcholinesterase inhibition (acetylcholinesterase [3]): mixed mode; IC50 acetylcholinesterase (acetylcholinesterase [8]): 7.4 µg/mL; IC50 (acetylcholinesterase [9]): 29.2 ± 1.59 µM; IC50 Values Acetylcholinesterase (acetylcholinesterase [9]): 10.27 µg/mL |
| CN1CCc2cc3c(cc2C(=O)Cc2ccc4c(c2C1)OCO4)OCO3 [Protopine, protopine] | 6 | 0 | 2.8 | 57.2 | – |
| C[n+]1cc2c3c(ccc2c2ccc4cc5c(cc4c21)OCO5)OCO3 [Sanguinarine, sanguinarine] | 4 | 0 | 4.4 | 40.8 | – |
| COc1cc2c3cc1Oc1c(O)c(OC)cc4c1[C@H](Cc1ccc(cc1)Oc1cc(ccc1O)C[C@H]3N(C)CC2)N(C)CC4 [aromoline] | – | – | – | – | IC50 (butyrylcholinesterase [10]): 0.82 µM |
| Bersavine | – | – | – | – | IC50 [11]: 8.1 to 11 µM |

Source: article PMC10933966, “In Vitro and In Silico of Cholinesterases Inhibition and In Vitro and In Vivo Anti-Melanoma Activity Investigations of Extracts Obtained from Selected Berberis Species” (Molecules, 2024)
